According to US11746087B1, “C4-carboxylic acid-substituted tryptamine derivatives and methods of using” (priority 2022, dated 2023):
Values joined by “and” are separate entries in the source; they are usually repeats but may differ in a detail not shown here. Equal entries are not always repeated.

Key:
[1] = biological target: T1, ADRA2A (Homo sapiens, UniProt P08913); assay: EFC-based cAMP secondary messenger assay, agonist mode; assay type: cell-based
T1 sequence (P08913 1-465): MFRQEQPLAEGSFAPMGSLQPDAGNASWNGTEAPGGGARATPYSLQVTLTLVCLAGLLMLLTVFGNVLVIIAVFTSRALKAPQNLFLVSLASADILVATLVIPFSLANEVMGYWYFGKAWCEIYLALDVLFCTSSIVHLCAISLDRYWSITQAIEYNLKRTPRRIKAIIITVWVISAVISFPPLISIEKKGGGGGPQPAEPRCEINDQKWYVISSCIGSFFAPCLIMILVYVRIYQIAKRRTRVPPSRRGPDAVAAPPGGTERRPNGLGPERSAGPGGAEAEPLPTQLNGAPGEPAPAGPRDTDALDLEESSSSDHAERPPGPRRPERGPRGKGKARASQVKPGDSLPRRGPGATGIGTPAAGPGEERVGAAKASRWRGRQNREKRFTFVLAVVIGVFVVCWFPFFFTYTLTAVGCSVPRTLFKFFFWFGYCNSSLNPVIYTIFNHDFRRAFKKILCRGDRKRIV

[2] = biological target: T2, 5-HT1A receptor (Homo sapiens, UniProt P08908); assay: cAMP-Glo assay in +5-HT1A vs −5-HT1A CHO-K1 cells; assay type: cell-based; settings: cAMP assay with 4 mM forskolin
T2 construct: host or cells: CHO-K1 (co-expressing Ga15)
T2 sequence (P08908 1-422): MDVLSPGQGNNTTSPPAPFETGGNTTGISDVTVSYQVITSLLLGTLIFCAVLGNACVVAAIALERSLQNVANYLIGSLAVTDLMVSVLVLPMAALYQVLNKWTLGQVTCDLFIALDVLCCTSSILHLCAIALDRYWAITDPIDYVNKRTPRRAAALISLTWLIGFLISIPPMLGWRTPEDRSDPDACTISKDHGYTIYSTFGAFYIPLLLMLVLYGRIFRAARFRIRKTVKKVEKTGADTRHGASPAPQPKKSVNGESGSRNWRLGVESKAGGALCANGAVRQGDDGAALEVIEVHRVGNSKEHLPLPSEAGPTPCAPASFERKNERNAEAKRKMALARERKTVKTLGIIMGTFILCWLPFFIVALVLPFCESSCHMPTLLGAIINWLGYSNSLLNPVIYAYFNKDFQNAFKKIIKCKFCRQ

[3] = biological target: DRD1 (Homo sapiens, UniProt P21728); assay: EFC-based cAMP secondary messenger assay, agonist mode; assay type: cell-based
[4] = biological target: DRD2S (Homo sapiens, UniProt P14416); assay: EFC-based cAMP secondary messenger assay, antagonist mode; assay type: cell-based
[5] = Mouse PK study (IV and PO), plasma parent compound and psilocin by LC-MS/MS; assay type: in vivo; settings: for detectability of parent compound in plasma, any dose: i.v. and oral, any animals at any dose
Source text: Briefly, the procedure was as follows. […] 19, 2022.

[6] = biological target: AVPR1A (Homo sapiens, UniProt P37288); assay: Calcium secondary messenger assay, agonist mode; assay type: cell-based
[7] = biological target: DAT (Homo sapiens, UniProt Q01959); assay: Neurotransmitter transporter uptake assay, blocker; assay type: cell-based
[8] = biological target: T3, HTR3A (5-HT3A) (Homo sapiens, UniProt P46098); assay: Ion channel assay (FLIPR membrane potential), blocker; assay type: cell-based
T3 sequence (P46098 24-478): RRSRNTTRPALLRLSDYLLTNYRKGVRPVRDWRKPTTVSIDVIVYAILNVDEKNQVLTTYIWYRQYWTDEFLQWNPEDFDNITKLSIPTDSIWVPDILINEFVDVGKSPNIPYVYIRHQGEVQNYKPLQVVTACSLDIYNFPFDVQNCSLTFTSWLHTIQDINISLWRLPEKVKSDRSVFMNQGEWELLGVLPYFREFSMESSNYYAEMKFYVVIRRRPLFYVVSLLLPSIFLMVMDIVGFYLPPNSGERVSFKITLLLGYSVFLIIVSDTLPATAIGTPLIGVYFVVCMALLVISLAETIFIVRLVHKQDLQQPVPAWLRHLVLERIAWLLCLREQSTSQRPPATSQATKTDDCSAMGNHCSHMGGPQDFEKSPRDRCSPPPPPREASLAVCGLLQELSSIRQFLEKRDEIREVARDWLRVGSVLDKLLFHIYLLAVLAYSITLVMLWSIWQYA

[9] = biological target: HTR2B (5-HT2B) (Homo sapiens, UniProt P41595); assay: Calcium secondary messenger assay, antagonist mode; assay type: cell-based
[10] = biological target: T4, CNR1 (Homo sapiens, UniProt P21554); assay: EFC-based cAMP secondary messenger assay, agonist mode; assay type: cell-based
[11] = biological target: T4, CNR1; assay: EFC-based cAMP secondary messenger assay, antagonist mode; assay type: cell-based

Chain of DRD2S (P14416 1-414 isoform P14416-2): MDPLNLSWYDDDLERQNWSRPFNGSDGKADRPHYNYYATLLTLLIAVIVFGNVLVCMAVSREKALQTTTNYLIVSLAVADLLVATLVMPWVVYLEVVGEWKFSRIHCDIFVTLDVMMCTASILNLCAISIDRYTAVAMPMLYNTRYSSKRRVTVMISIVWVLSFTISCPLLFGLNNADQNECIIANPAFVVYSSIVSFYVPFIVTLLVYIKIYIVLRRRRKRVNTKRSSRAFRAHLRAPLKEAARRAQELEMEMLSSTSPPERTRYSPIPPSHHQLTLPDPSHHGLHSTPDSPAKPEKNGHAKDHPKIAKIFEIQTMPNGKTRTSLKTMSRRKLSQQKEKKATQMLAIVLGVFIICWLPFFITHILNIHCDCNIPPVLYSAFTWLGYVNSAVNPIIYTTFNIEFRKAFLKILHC
Chain of DAT (Q01959 whole entry): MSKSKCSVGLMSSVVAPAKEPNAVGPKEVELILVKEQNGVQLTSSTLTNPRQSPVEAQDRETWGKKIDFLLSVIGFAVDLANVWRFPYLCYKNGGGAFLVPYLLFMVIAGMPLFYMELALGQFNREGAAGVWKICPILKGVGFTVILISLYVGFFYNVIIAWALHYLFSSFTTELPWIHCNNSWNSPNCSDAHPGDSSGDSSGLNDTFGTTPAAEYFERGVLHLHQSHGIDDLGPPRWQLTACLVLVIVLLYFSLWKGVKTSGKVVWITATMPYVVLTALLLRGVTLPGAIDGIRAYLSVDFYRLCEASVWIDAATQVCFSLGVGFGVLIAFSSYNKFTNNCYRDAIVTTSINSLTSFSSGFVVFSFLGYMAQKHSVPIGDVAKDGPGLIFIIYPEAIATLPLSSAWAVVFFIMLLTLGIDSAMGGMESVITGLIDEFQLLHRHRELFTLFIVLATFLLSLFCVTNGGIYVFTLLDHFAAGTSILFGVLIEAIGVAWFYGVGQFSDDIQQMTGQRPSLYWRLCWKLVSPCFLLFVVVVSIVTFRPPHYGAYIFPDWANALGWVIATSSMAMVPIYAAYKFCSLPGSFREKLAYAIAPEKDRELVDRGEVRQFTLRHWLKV
Chain of HTR2B (5-HT2B) (P41595 whole entry): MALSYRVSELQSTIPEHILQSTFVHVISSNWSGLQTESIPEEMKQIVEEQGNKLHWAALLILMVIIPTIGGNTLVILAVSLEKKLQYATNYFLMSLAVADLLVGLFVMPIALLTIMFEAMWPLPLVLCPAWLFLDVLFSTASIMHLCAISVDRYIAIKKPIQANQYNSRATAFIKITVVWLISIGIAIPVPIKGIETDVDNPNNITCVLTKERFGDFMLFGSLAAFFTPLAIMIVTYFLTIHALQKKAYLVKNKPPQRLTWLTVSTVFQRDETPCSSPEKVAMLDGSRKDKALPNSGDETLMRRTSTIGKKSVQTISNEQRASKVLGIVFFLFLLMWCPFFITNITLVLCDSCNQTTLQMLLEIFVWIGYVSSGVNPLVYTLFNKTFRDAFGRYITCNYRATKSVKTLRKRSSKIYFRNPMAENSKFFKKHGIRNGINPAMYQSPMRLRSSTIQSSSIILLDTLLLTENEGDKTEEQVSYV
Chain of DRD1 (P21728 whole entry): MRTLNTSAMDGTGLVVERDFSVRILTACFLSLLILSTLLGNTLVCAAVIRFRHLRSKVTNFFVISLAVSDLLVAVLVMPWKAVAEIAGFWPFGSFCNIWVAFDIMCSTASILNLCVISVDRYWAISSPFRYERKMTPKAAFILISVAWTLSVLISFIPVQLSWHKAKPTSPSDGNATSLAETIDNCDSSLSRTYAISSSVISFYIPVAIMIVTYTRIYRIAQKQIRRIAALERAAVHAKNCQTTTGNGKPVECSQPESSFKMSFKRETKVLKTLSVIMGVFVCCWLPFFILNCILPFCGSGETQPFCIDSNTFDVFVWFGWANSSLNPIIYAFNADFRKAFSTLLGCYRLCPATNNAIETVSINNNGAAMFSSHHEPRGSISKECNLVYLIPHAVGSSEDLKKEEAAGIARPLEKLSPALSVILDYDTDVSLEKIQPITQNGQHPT
T4 sequence (P21554 whole entry): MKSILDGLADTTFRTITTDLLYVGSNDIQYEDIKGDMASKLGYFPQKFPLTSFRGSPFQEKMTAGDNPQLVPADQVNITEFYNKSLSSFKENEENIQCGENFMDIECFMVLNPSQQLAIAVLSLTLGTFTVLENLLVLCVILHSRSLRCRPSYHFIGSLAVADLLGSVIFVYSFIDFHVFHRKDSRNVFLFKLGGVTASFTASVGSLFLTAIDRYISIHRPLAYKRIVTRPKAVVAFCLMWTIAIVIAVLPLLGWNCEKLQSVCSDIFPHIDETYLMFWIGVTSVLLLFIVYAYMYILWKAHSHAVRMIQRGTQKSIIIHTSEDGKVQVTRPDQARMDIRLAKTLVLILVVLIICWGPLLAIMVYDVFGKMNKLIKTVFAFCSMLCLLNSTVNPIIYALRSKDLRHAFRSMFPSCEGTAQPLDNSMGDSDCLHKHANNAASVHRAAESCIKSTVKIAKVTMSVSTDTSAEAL
Chain of AVPR1A (P37288 whole entry): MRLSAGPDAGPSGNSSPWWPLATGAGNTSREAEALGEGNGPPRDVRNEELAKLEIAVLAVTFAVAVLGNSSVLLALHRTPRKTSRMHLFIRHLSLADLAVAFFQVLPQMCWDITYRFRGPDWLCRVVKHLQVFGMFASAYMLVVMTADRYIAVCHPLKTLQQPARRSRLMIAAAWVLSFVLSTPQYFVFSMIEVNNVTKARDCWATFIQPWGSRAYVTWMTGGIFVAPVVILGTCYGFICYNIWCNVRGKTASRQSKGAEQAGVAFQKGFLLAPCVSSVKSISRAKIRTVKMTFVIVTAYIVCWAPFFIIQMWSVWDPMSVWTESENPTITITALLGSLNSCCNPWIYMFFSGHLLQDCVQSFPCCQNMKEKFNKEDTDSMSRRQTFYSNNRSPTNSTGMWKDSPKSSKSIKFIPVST

Row | SMILES | EC50 [1] [µM] | 5-HT1A receptor modulation, +5-HT1A vs −5-HT1A cultures [2] | EC50 [3] [µM] | IC50 [4] [µM] | detectability of parent compound in plasma, any dose ([5]; mouse) | EC50 [6] [µM] | IC50 [7] [µM] | IC50 [8] [µM] | IC50 [9] [µM] | EC50 [10] [µM] | IC50 [11] [µM] | other results
1 | CN(C)CCc1c[nH]c2cccc(OC(=O)CC3CC3)c12 [C(IV)] | > 100 | significant receptor modulation | > 100 | > 100 | not detectable in any animals at any dose | > 100 | > 100 | 76.7 | 0.059 | > 100 | > 100 | Plasma concentration of psilocin ([5]; 0.275 mg/kg oral C(IV), 4 h, individual animals, BLQ = below 0.2 ng/mL): BLQ; Plasma concentration of psilocin ([5]; 0.275 mg/kg oral C(IV), 6 h, individual animals, BLQ = below 0.2 ng/mL): BLQ; Plasma concentration of psilocin ([5]; 0.275 mg/kg oral C(IV), 8 h, individual animals, BLQ = below 0.2 ng/mL): BLQ; Plasma concentration of psilocin ([5]; 0.275 mg/kg oral C(IV), 24 h, individual animals): No Peak; Plasma concentration of psilocin ([5]; 0.293 mg/kg i.v. C(IV), 8 h, individual animals, BLQ = below 0.2 ng/mL): No Peak and BLQ (2×); Plasma concentration of psilocin ([5]; 0.789 mg/kg oral C(IV), 8 h, individual animals, BLQ = below 0.2 ng/mL): BLQ; Plasma concentration of psilocin ([5]; 0.789 mg/kg oral C(IV), 24 h, individual animals): No Peak; Plasma concentration of psilocin ([5]; 2.52 mg/kg oral C(IV), 24 h, individual animals, BLQ = below 0.2 ng/mL): BLQ and No Peak (2×)
2 | COc1ccc(C(=O)Oc2cccc3[nH]cc(CCN(C)C)c23)cc1 [C(V)] | > 100 | mild receptor modulation at higher ligand concentrations | > 100 | 1.78 |  | > 100 | > 100 | 33.9 | 0.012 | > 100 | > 100 | concentration at 0.25 h ([5]; male, C57Bl/6, mouse, plasma, iv, 1 mg/kg, mouse, C(V) 1 mg/kg i.v., 0.25 h, C(V) not stable in plasma, not considered accurate, read-out: Plasma concentration of C(V)): 0.834 ng/mL; Tmax ([5]; male, C57Bl/6, mouse, plasma, iv, 1 mg/kg, mouse, C(V) 1 mg/kg i.v., estimates not considered accurate (plasma instability), read-out: tmax of C(V)): 5 min; stability in plasma ([5]; mouse plasma, PK bioanalysis): unstable in plasma; detectability of parent compound in plasma, i.v. dosing ([5]; mouse, 1 mg/kg i.v.): only detectable in iv. administered animals; Plasma concentration of C(V) ([5]; mouse, C(V) 1 mg/kg i.v., 0.5 h, 1 mg/kg): BLQ and No Peak; Plasma concentration of C(V) ([5]; mouse, C(V) 1 mg/kg i.v., 1 h): No Peak; Plasma concentration of C(V) ([5]; mouse, C(V) 1 mg/kg i.v., 2 h): No Peak; Plasma concentration of C(V) ([5]; mouse, C(V) 1 mg/kg i.v., 4 h): No Peak; Plasma concentration of C(V) ([5]; mouse, C(V) 1 mg/kg i.v., 6 h): No Peak; Plasma concentration of C(V) ([5]; mouse, C(V) 1 mg/kg i.v., 8 h): No Peak; tmax of C(V) ([5]; mouse, C(V) 1 mg/kg i.v., estimates not considered accurate (plasma instability), 1 mg/kg): 0.0833 h (2×) and 0.0833 ± 0.00 h; Plasma concentration of psilocin ([5]; mouse, C(V) 1 mg/kg oral, 24 h, 1 mg/kg): No Peak and BLQ; Plasma concentration of psilocin ([5]; mouse, C(V) 3 mg/kg oral, 24 h, 3 mg/kg): No Peak and BLQ; Plasma concentration of psilocin ([5]; mouse, C(V) 10 mg/kg oral, 24 h, 10 mg/kg): BLQ and No Peak; detectability of parent compound in plasma, oral dosing ([5]; mouse, oral, any dose (1, 3, 10 mg/kg)): not detectable
3 | CN(C)CCc1c[nH]c2cccc(OC(=O)c3c(F)c(F)c(F)c(F)c3F)c12 [C(VI)] | 65.1 | no receptor modulation at higher ligand concentrations | > 100 | > 100 | not detectable in any animals at any dose | > 100 | > 100 | 55.1 | 0.03 | 62.9 | > 100 | Plasma concentration of psilocin ([5]; mouse, C(VI) 1 mg/kg i.v., 8 h): BLQ; Plasma concentration of psilocin ([5]; mouse, C(VI) 1 mg/kg oral, 24 h, 1 mg/kg): BLQ and No Peak; Plasma concentration of psilocin ([5]; mouse, C(VI) 3 mg/kg oral, 24 h, 3 mg/kg): BLQ and No Peak; Plasma concentration of psilocin ([5]; mouse, C(VI) 10 mg/kg oral, 24 h): BLQ
